Among the data in patent US20230148214A1, “INDAZOLES AND AZAINDAZOLES AS LRRK2 INHIBITORS” (ESCAPE Bio, Inc., priority 2020, published 2023) are IC50 values, retold here.

Assay [1] concerns the target T1, LRRK2 WT (Homo sapiens, UniProt Q5S007).
T1 construct: purchased Life Technologies PR8604B
In words: LRRK2 Kinase Activity Assay (LanthaScreen TR-FRET), wild type. It is filed as biochemical. The settings on record: recombinant wild type LRRK2, 25 μM ATP, 400 nM LRRKtide, 60 min; class symbols. On the procedure: (§1) LRRK2 kinase activity was measured using a LanthaScreen™ Kinase Activity Assay from ThermoFisher Scientific. Recombinant wild type or G2019S-LRRK2 protein (Life Technologies, PR8604B or PV4881, respectively), was incubated with a fluorescein-labeled peptide substrate called LRRKtide that is based upon ezrin/radixin/moesin (ERM) (Life Technologies, PV4901) in the presence of ATP and serially diluted compound. […] Compound-dependent inhibition of the TR-FRET signal was used to generate a concentration-response curve for IC50 determination.
(§2) After 60 min incubation at room temperature, the reaction was stopped by addition of 10 μL of 2×stop solution containing a final concentration of 2 nM anti-pERM antibody and 10 mM EDTA.
In general terms: TR-FRET usually uses a lanthanide donor and a delayed reading to cut background.

The target in assay [2] is T2, LRRK2 G2019S (Homo sapiens, UniProt Q5S007, G2019S).
T2 construct: purchased Life Technologies PV4881
T2 sequence (Q5S007 whole entry G2019S): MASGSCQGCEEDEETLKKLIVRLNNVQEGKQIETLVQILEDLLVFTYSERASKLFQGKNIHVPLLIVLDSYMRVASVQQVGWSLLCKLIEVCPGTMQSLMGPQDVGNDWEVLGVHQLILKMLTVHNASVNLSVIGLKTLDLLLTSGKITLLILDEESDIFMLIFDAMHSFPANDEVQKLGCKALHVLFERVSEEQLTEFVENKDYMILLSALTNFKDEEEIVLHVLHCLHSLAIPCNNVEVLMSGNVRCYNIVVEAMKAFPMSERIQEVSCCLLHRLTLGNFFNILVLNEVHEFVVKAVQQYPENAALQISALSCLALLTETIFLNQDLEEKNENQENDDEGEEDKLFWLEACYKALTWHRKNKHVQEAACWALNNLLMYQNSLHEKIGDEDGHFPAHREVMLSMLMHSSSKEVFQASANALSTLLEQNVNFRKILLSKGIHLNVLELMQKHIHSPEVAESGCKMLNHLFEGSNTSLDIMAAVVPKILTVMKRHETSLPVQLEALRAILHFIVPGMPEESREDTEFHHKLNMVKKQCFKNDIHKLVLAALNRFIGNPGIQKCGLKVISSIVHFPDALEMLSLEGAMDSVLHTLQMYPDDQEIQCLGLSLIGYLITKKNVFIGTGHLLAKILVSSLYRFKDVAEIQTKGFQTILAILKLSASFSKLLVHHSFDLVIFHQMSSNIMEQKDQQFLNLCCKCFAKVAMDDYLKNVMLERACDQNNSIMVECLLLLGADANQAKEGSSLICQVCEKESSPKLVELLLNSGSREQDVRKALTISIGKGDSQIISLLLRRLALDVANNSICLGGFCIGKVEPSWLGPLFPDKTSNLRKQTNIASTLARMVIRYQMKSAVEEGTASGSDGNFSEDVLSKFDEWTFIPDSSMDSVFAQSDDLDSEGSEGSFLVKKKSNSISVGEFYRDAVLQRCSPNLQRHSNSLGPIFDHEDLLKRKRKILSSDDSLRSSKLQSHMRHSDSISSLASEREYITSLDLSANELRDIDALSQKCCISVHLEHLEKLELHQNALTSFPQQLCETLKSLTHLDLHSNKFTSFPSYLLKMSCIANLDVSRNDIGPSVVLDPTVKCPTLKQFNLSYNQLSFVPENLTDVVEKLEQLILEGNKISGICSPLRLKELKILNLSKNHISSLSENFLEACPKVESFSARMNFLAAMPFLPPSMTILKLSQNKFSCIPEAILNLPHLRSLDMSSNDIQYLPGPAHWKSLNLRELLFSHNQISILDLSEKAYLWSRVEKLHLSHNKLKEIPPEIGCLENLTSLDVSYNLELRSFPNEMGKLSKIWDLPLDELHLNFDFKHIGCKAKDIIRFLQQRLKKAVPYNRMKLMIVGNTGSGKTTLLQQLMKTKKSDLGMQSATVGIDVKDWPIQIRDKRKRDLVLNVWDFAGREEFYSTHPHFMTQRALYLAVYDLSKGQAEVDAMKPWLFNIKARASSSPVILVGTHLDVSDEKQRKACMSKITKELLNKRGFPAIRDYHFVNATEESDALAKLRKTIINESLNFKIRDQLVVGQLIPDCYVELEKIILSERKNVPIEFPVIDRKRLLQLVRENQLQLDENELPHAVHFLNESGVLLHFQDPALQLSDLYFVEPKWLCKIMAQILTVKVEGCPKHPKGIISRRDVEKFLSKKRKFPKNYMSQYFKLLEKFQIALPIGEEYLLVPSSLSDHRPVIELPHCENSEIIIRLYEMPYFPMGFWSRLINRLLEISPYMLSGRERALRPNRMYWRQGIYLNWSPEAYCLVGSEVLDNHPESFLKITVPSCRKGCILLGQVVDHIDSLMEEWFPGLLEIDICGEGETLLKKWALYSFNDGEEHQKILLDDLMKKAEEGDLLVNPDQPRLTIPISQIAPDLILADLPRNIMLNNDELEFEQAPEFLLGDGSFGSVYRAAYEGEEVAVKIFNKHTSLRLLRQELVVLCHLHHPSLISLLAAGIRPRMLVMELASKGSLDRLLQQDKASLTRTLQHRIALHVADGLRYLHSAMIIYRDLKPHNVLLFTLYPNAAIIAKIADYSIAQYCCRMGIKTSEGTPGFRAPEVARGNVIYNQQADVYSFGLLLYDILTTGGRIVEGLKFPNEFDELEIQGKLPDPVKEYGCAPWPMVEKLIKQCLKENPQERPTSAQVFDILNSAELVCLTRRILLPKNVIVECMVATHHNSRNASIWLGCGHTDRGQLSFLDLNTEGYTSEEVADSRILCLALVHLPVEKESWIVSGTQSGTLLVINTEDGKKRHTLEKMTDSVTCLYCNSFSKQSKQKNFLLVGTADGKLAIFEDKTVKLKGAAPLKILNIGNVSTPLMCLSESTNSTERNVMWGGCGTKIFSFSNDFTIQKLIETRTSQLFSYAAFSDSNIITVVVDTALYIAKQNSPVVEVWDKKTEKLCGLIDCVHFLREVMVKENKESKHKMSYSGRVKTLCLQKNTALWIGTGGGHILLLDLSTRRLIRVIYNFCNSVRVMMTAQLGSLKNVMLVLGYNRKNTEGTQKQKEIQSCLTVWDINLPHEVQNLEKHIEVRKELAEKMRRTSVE
In words: LRRK2 Kinase Activity Assay (LanthaScreen TR-FRET), G2019S. It counts as biochemical. Conditions: recombinant G2019S-LRRK2, 25 μM ATP, 400 nM LRRKtide, 60 min; class symbols. The protocol:
as §1, §2

T1 sequence (Q5S007 whole entry): as the sequence (Q5S007 whole entry G2019S) above, with S2019G counted along it

By IC50 is commonly meant the concentration that inhibits the measured activity by half. `N#Cc1cnc2c(c1)CCC[C@H]2Nc1ccc2[nH]nc(-c3cnco3)c2c1` (single isomer, unassigned) [Example 120, enantiomer 2, 8-((3-(Oxazol-5-yl)-1H-indazol-5-yl)amino)-5,6,7,8-tetrahydroquinoline-3-carbonitrile]: in assay [1], the IC50 is below 100 nM.
With `CCc1cc(-c2n[nH]c3ccc(O[C@@H]4CCCc5cc(C#N)cnc54)cc23)ccn1` (single isomer, unassigned) [Example 121, enantiomer 2, 8-((3-(2-Ethylpyridin-4-yl)-1H-indazol-5-yl)oxy)-5,6,7,8-tetrahydroquinoline-3-carbonitrile], in assay [1], the concentration for half-maximal inhibition (IC50) was below 100 nM.
Turning to `N#Cc1cc2c(cn1)[C@H](Oc1ccc3[nH]nc(-c4cnco4)c3c1)CCC2` (single isomer, unassigned) [Example 122, enantiomer 2, 8-((3-(Oxazol-5-yl)-1H-indazol-5-yl)oxy)-5,6,7,8-tetrahydroisoquinoline-3-carbonitrile], in assay [1], the IC50 is below 100 nM.
For the molecule `COc1cc(-c2n[nH]c3ccc(O[C@H]4CCCc5cc(C#N)cnc54)cc23)ccn1` (single isomer, unassigned) [Example 123, enantiomer 2, 8-((3-(2-Methoxypyridin-4-yl)-1H-indazol-5-yl)oxy)-5,6,7,8-tetrahydroquinoline-3-carbonitrile], the IC50 in assay [1] is below 100 nM.
Consider `N#Cc1ccc2c(c1)CC[C@@H]2Oc1ccc2[nH]nc(C3CC3)c2c1` (single isomer, unassigned) [Example 124, enantiomer 2, 1-((3-Cyclopropyl-1H-indazol-5-yl)oxy)-2,3-dihydro-1H-indene-5-carbonitrile], for which, in assay [2], the half-inhibitory concentration (IC50) fell in the range of 100 to 1000 nM.
For `Cc1c(C#N)ccc2c1CC[C@@H]2Nc1ccc2[nH]nc(I)c2c1` (single isomer, unassigned) [Example 127, enantiomer 2, 1-((3-Iodo-1H-indazol-5-yl)amino)-4-methyl-2,3-dihydro-1H-indene-5-carbonitrile], the IC50 in assay [1] was 100 to 1000 nM.
Still for that read-out and setting: as for `Cc1n[nH]c2ccc(N[C@H]3CCc4c(C#N)cccc43)cc12` (single isomer, unassigned) [Example 129, enantiomer 2, 1-((3-Methyl-1H-indazol-5-yl)amino)-2,3-dihydro-1H-indene-4-carbonitrile], the figure is 100 to 1000 nM; as for `Cc1cc(C#N)cc2c1[C@@H](Nc1ccc3[nH]nc(-c4cnco4)c3c1)CC2` (single isomer, unassigned) [Example 131, enantiomer 2, 7-Methyl-1-((3-(oxazol-5-yl)-1H-indazol-5-yl)amino)-2,3-dihydro-1H-indene-5-carbonitrile], below 100 nM; as for `N#Cc1cc(F)c2c(c1)CC[C@H]2Nc1ccc2[nH]nc(-c3cnco3)c2c1` (single isomer, unassigned) [Example 132, enantiomer 2, 5-((5-Cyano-7-fluoro-2,3-dihydro-1H-inden-1-yl)amino)-3-(oxazol-5-yl)-1H-indazol-2-ium], below 100 nM.
`N#Cc1cnc2c(c1)CCC[C@@H]2Oc1ccc2[nH]nc(-c3cnn(C(F)F)c3)c2c1` (single isomer, unassigned) [Example 141, enantiomer 2, 8-((3-(1-(Difluoromethyl)-1H-pyrazol-4-yl)-1H-indazol-5-yl)oxy)-5,6,7,8-tetrahydroquinoline-3-carbonitrile]: in assay [1], the IC50 is below 100 nM.
Still for that read-out and setting: as for `N#Cc1cnc2c(c1)CCC[C@@H]2Nc1ccc2[nH]nc(-c3cncs3)c2c1` (single isomer, unassigned) [Example 142, enantiomer 2, 8-((3-(Thiazol-5-yl)-1H-indazol-5-yl)amino)-5,6,7,8-tetrahydroquinoline-3-carbonitrile], the figure is below 100 nM; as for `N#Cc1ccc2c(c1Cl)CCC[C@@H]2Nc1ccc2[nH]nc(-c3cnco3)c2c1` (single isomer, unassigned) [Example 143, enantiomer 2, 1-Chloro-5-((3-(oxazol-5-yl)-1H-indazol-5-yl)amino)-5,6,7,8-tetrahydronaphthalene-2-carbonitrile], below 100 nM; as for `N#Cc1cnc2c(c1C(F)(F)F)CCC[C@@H]2Nc1ccc2[nH]nc(-c3cnco3)c2c1` (single isomer, unassigned) [Example 145, enantiomer 2, 8-((3-(Oxazol-5-yl)-1H-indazol-5-yl)amino)-4-(trifluoromethyl)-5,6,7,8-tetrahydroquinoline-3-carbonitrile], below 100 nM.
For the molecule `COc1c(C#N)cnc2c1CCC[C@@H]2Nc1ccc2[nH]nc(-c3cnco3)c2c1` (single isomer, unassigned) [Example 146, enantiomer 2, 4-Methoxy-8-((3-(oxazol-5-yl)-1H-indazol-5-yl)amino)-5,6,7,8-tetrahydroquinoline-3-carbonitrile], the 50% inhibitory concentration (IC50) in assay [1] is below 100 nM.
As to `N#Cc1ccc2c(c1F)CC(F)(F)[C@@H]2Nc1ccc2[nH]nc(-c3cnco3)c2c1` (single isomer, unassigned) [Example 151, enantiomer 2, 2,2,4-Trifluoro-1-((3-(oxazol-5-yl)-1H-indazol-5-yl)amino)-2,3-dihydro-1H-indene-5-carbonitrile], the IC50 in assay [1] is below 100 nM.
As for `COc1c(C#N)cnc2c1CC[C@@H]2Nc1ccc2[nH]nc(-c3cnco3)c2c1` (single isomer, unassigned) [Example 154, enantiomer 1, 4-Methoxy-7-((3-(oxazol-5-yl)-1H-indazol-5-yl)amino)-6,7-dihydro-5H-cyclopenta[b]pyridine-3-carbonitrile], the IC50 in assay [1] was in the range of 100 to 1000 nM.
As to `Cc1ncc(-c2n[nH]c3ccc(N[C@@H]4c5ccc(C#N)cc5CC4(F)F)cc23)o1` (single isomer, unassigned) [Example 155, enantiomer 2, 2,2-Difluoro-1-((3-(2-methyloxazol-5-yl)-1H-indazol-5-yl)amino)-2,3-dihydro-1H-indene-5-carbonitrile], in assay [1], the concentration for half-maximal inhibition (IC50) was below 100 nM.
In the case of `Cc1ncc(-c2n[nH]c3ccc(O[C@H]4CCc5c4ccc(C#N)c5F)cc23)o1` (single isomer, unassigned) [Example 156, enantiomer 2, 4-Fluoro-1-((3-(2-methyloxazol-5-yl)-1H-indazol-5-yl)oxy)-2,3-dihydro-1H-indene-5-carbonitrile], the IC50 in assay [1] was below 100 nM.
Consider `Cc1cc(-c2n[nH]c3ccc(N[C@H]4CCCc5cc(C#N)cnc54)cc23)sn1` (single isomer, unassigned) [Example 158, enantiomer 2, 8-((3-(3-Methylisothiazol-5-yl)-1H-indazol-5-yl)amino)-5,6,7,8-tetrahydroquinoline-3-carbonitrile], for which, in assay [1], the 50% inhibitory concentration (IC50) was below 100 nM.
On to `Cc1ncc(-c2n[nH]c3ccc(N[C@H]4CCCc5cc(C#N)c(C)nc54)cc23)o1` (single isomer, unassigned) [Example 159, enantiomer 2, 2-Methyl-8-((3-(2-methyloxazol-5-yl)-1H-indazol-5-yl)amino)-5,6,7,8-tetrahydroquinoline-3-carbonitrile], for which the IC50 in assay [1] was below 100 nM.
Consider `Cc1ncc(-c2n[nH]c3ccc(O[C@H]4CCc5cc(C#N)c(F)cc54)cc23)o1` (single isomer, unassigned) [Example 160, enantiomer 2, 6-Fluoro-1-((3-(2-methyloxazol-5-yl)-1H-indazol-5-yl)oxy)-2,3-dihydro-1H-indene-5-carbonitrile], for which the IC50 in assay [1] is below 100 nM.
For the molecule `N#Cc1cnc2c(n1)CCC[C@@H]2Oc1ccc2[nH]nc(-c3cnco3)c2c1` (single isomer, unassigned) [Example 163, enantiomer 2, 5-[[3-(1,3-Oxazol-5-yl)-1H-indazol-5-yl]oxy]-5,6,7,8-tetrahydroquinoxaline-2-carbonitrile], the IC50 in assay [1] is below 100 nM.
Still for that read-out and setting: as for `Cc1nc2c(c(C)c1C#N)CCC[C@@H]2Nc1ccc2[nH]nc(-c3cnco3)c2c1` (single isomer, unassigned) [Example 164, enantiomer 2, 2,4-Dimethyl-8-[[3-(1,3-oxazol-5-yl)-1H-indazol-5-yl]amino]-5,6,7,8-tetrahydroquinoline-3-carbonitrile], the figure is below 100 nM.
The same measure, in the same setting: to `COc1nc2c(c(C)c1C#N)CCC[C@@H]2Nc1ccc2[nH]nc(-c3cnco3)c2c1` (single isomer, unassigned) [Example 165, enantiomer 2, 2-Methoxy-4-methyl-8-[[3-(1,3-oxazol-5-yl)-1H-indazol-5-yl]amino]-5,6,7,8-tetrahydroquinoline-3-carbonitrile] belongs below 100 nM; to `Cc1c(C#N)c(Cl)nc2c1CC[C@@H]2Oc1ccc2[nH]nc(-c3cnco3)c2c1` (single isomer, unassigned) [Example 166, enantiomer 2, 2-Chloro-4-methyl-7-[[3-(1,3-oxazol-5-yl)-1H-indazol-5-yl]oxy]-6,7-dihydro-5H-cyclopenta[b]pyridine-3-carbonitrile], below 100 nM; to `N#Cc1c(F)cc2c(c1F)CC[C@@H]2Oc1ccc2[nH]nc(-c3cnco3)c2c1` (single isomer, unassigned) [Example 167, enantiomer 2, 4,6-Difluoro-1-[[3-(1,3-oxazol-5-yl)-1H-indazol-5-yl]oxy]-2,3-dihydro-1H-indene-5-carbonitrile], below 100 nM.
Still for that read-out and setting: as for `N#Cc1cc2c(nc1Cl)[C@@H](Oc1ccc3[nH]nc(-c4cnco4)c3c1)CC2` (single isomer, unassigned) [Example 171, enantiomer 2, 2-Chloro-7-[[3-(1,3-oxazol-5-yl)-1H-indazol-5-yl]oxy]-6,7-dihydro-5H-cyclopenta[b]pyridine-3-carbonitrile], the figure is below 100 nM.
